Experiments:
IKZF2 ZF2 = IKZF2 ZF2 (Homo sapiens, UniProt Q96SW2+Q9UKS7); assay: Degradation reporter analysis of IKZF2 ZF2; assay type: cell-based
[1] = target: human C2H2 ZF library in HEK293T cells (Homo sapiens, UniProt Q9UKS7); assay: C2H2 zinc finger library screen; assay type: cell-based; settings: 1 μM, 20 hours
[2] = system: endogenous, full-length WIZ; settings: WSU-DLCL2 and TMD8 cells; cited from earlier work
[3] = target: CRBN-pomalidomide (Alexa488DDB1ΔB-CRBN-pomalidomide-biotinIKZF1 ZF1-2-3) (Homo sapiens, UniProt Q96SW2)
CRBN-pomalidomide (Alexa488DDB1ΔB-CRBN-pomalidomide-biotinIKZF1 ZF1-2-3), sequence (Q96SW2 whole entry, stated change not applied): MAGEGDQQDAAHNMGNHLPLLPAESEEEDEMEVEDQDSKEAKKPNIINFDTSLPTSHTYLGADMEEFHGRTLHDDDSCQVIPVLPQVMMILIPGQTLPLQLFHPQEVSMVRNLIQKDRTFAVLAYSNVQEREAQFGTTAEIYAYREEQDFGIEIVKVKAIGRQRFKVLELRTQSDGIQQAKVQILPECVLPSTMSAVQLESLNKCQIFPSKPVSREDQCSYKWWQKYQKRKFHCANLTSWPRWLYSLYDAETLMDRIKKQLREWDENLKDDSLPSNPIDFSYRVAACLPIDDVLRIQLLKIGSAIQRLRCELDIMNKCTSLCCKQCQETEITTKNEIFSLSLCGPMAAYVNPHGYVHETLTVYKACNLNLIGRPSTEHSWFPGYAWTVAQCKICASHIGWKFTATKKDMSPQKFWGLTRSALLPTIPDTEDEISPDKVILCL

[4] = system: human C2H2 ZF library in HEK293T cells; assay: C2H2 zinc finger library screen; assay type: cell-based; settings: FDR <0.01, 5,611 ZFs assayed, 1 μM, 20 hours
[5] = system: ZFs that bound CRBN-pomalidomide in the biochemical assay; assay type: cell-based, human; settings: WIZ ZF7, cells

IKZF2 ZF2, sequence (Q9UKS7 140-162 limits assumed): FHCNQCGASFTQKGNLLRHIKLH
IKZF2 ZF2, sequence (Q96SW2 whole entry): as the sequence (Q96SW2 whole entry, stated change not applied) above
IKZF2 ZF2, sequence (Q16531 2-1140 partner limits assumed): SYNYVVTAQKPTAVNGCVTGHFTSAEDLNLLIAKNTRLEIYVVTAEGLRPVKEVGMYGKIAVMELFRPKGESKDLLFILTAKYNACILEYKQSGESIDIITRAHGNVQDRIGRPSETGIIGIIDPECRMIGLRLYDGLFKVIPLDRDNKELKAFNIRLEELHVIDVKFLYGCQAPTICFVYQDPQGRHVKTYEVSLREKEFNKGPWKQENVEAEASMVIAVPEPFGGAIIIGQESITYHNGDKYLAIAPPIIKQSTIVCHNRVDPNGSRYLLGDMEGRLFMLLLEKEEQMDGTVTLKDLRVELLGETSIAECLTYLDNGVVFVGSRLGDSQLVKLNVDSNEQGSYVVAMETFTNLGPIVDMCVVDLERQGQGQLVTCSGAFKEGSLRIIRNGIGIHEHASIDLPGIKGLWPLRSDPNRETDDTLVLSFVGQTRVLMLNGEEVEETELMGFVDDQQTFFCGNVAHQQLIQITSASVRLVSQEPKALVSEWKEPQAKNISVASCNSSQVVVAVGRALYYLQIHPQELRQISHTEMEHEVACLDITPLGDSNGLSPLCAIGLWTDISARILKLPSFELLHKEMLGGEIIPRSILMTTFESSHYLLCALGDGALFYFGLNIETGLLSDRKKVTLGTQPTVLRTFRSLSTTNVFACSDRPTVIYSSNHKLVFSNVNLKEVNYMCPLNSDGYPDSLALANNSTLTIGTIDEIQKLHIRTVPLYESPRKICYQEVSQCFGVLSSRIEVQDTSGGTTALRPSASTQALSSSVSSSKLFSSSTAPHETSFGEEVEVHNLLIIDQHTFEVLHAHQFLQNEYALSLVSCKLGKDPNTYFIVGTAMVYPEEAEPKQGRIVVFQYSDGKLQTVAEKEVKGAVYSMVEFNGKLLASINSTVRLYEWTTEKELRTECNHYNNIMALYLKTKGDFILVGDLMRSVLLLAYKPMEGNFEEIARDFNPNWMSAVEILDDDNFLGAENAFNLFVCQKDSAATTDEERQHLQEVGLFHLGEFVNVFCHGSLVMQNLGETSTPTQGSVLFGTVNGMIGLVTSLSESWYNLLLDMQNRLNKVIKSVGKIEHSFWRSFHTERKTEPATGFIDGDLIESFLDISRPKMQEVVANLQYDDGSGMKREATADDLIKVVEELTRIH
human C2H2 ZF library in HEK293T cells (Homo sapiens, UniProt Q9UKS7), sequence (Q96SW2 whole entry partner): as the sequence (Q96SW2 whole entry, stated change not applied) above

SMILES | degradation of IKZF2 ZF2 (in words) (IKZF2 ZF2) | degradation of the IKZF2 ZF2 reporter (IKZF2 ZF2; validation experiments) | degradation of IKZF2 ZF2 in the C2H2 ZF library screen [1] | degradation of endogenous, full-length WIZ [2] | factor of decrease in binding affinity, ZF2-ZF1 versus ZF2-ZF3 [3] | number of C2H2 ZFs depleted [4] | degradation of WIZ ZF7 in the degradation reporter [5]
O=C1CC[C@H](N2Cc3c(OCc4ccc(CN5CCOCC5)cc4)cccc3C2=O)C(=O)N1 [CC-220] | efficiently degraded | more than 40% | selectively degraded | – | – | – | –
Cc1nc2cccc(N)c2c(=O)n1C1CCC(=O)NC1=O (stereo not shown) [CC-122] | not degraded | – | – | confirmed degradation | – | – | –
Nc1cccc2c1CN(C1CCC(=O)NC1=O)C2=O (stereo not shown) [lenalidomide] | – | – | – | confirmed degradation | – | – | –
Nc1cccc2c1C(=O)N(C1CCC(=O)NC1=O)C2=O (stereo not shown) [pomalidomide] | not degraded | – | – | – | 6 | 11 | partial degradation

Source: PMC6326779 (Science (New York, N.Y.), 2018)
